Target: recombinant DYRK1A kinase (Homo sapiens (Human), UniProt Q13627)
Assay: DYRK1A kinase assay (Ser/Thr 18 peptide Z-lyte FRET assay)
Format: biochemical
Conditions: DYRK1A 0.25 μg/mL, ATP 15 μM, Ser/Thr peptide 18 4 μM; one hour at room temperature; 11-point dose-response, duplicate
Method in brief: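 Z-lyte FRET assay on Ser/Thr 18 peptide, kinase activity read as coumarin/fluorescein emission ratio; compounds incubated 1 h at room temperature, then development reagent 1 h, in duplicate. Phosphorylated and unphosphorylated peptide served as controls; IC50 by non-linear regression of dose-response curves.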

SMILES | IC50 [nM]
CC(=O)N1CC[C@H](Nc2nc(N)c3c(-c4ccc5nc(C)n(CC(F)F)c5n4)ccn3n2)[C@H](F)C1 [Compound 715, 1-((3R,4S)-4-((4-Amino-5-(3-(2,2-difluoroethyl)-2-methyl-3H-imidazo[4,5-b]pyridin-5-yl)pyrrolo[2,1-f][1,2,4]triazin-2-yl)amino)-3-fluoropiperidin-1-yl)ethan-1-one] | 0.4
CC(=O)N1CC[C@@H](Nc2nc(N)c3c(-c4ccc5nc(C)n(CC(F)F)c5n4)ccn3n2)C(F)(F)C1 [Compound 729, (R)-1-(4-((4-Amino-5-(3-(2,2-difluoroethyl)-2-methyl-3H-imidazo[4,5-b]pyridin-5-yl)pyrrolo[2,1-f][1,2,4]triazin-2-yl)amino)-3,3-difluoropiperidin-1-yl)ethan-1-one] | 0.4
Cc1nc2ccc(-c3ccn4nc(N[C@@H]5CCN(C6COC6)CC5(F)F)nc(N)c34)nc2n1CC(F)F [Compound 730, (R)—N^2-(3,3-Difluoro-1-(oxetan-3-yl)piperidin-4-yl)-5-(3-(2,2-difluoroethyl)-2-methyl-3H-imidazo[4,5-b]pyridin-5-yl)pyrrolo[2,1-f][1,2,4]triazine-2,4-diamine] | 2.1
Cc1nc2ccc(-c3ccn4nc(N[C@H]5CC[C@](C)(O)CC5)nc(N)c34)nc2n1CC(F)(F)F [Compound 754, (1r,4r)-4-((4-Amino-5-(2-methyl-3-(2,2,2-trifluoroethyl)-3H-imidazo[4,5-b]pyridin-5-yl)pyrrolo[2,1-f][1,2,4]triazin-2-yl)amino)-1-methylcyclohexan-1-ol] | 0.5
CC(=O)N1C[C@H](F)[C@H](Nc2nc(N)c3c(-c4ccc5nc(C)n(CC(F)(F)F)c5n4)ccn3n2)C1 [Compound 762, 1-((3R,4S)-3-((4-Amino-5-(2-methyl-3-(2,2,2-trifluoroethyl)-3H-imidazo[4,5-b]pyridin-5-yl)pyrrolo[2,1-f][1,2,4]triazin-2-yl)amino)-4-fluoropyrrolidin-1-yl)ethan-1-one] | 1.5
Cc1nc2ccc(-c3ccn4nc(N[C@@H]5CN(C6COC6)C[C@@H]5F)nc(N)c34)nc2n1CC(F)(F)F [Compound 763, N^2-((3R,4S)-4-Fluoro-1-(oxetan-3-yl)pyrrolidin-3-yl)-5-(2-methyl-3-(2,2,2-trifluoroethyl)-3H-imidazo[4,5-b]pyridin-5-yl)pyrrolo[2,1-f][1,2,4]triazine-2,4-diamine] | 1.4
CC(=O)N1CC[C@H](Nc2nc(N)c3c(-c4ccc5nc(C)n(CC(F)(F)F)c5n4)ccn3n2)[C@H](F)C1 [Compound 777, 1-((3R,4S)-4-((4-Amino-5-(2-methyl-3-(2,2,2-trifluoroethyl)-3H-imidazo[4,5-b]pyridin-5-yl)pyrrolo[2,1-f][1,2,4]triazin-2-yl)amino)-3-fluoropiperidin-1-yl)ethan-1-one] | 1.2
Cc1nc2ccc(-c3ccn4nc(N[C@H]5CCN(C6COC6)C[C@H]5F)nc(N)c34)nc2n1CC(F)(F)F [Compound 780, N^2-((3R,4S)-3-Fluoro-1-(oxetan-3-yl)piperidin-4-yl)-5-(2-methyl-3-(2,2,2-trifluoroethyl)-3H-imidazo[4,5-b]pyridin-5-yl)pyrrolo[2,1-f][1,2,4]triazine-2,4-diamine] | 1.2
Cc1nc2ccc(-c3ccn4nc(N[C@@H]5CCN(C6COC6)CC5(F)F)nc(N)c34)nc2n1CC(F)(F)F [Compound 792, (R)—N^2-(3,3-Difluoro-1-(oxetan-3-yl)piperidin-4-yl)-5-(2-methyl-3-(2,2,2-trifluoroethyl)-3H-imidazo[4,5-b]pyridin-5-yl)pyrrolo[2,1-f][1,2,4]triazine-2,4-diamine] | 4.8
C[C@]1(O)CC[C@H](Nc2nc(N)c3c(-c4ccc5nnn(CC(F)F)c5n4)ccn3n2)CC1 [Compound 816, (1r,4r)-4-((4-Amino-5-(3-(2,2-difluoroethyl)-3H-[1,2,3]triazolo[4,5-b]pyridin-5-yl)pyrrolo[2,1-f][1,2,4]triazin-2-yl)amino)-1-methylcyclohexan-1-ol] | 1.3
Nc1nc(N[C@H]2CCN(C3COC3)C[C@H]2F)nn2ccc(-c3ccc4nnn(CC(F)F)c4n3)c12 [Compound 842, 5-(3-(2,2-Difluoroethyl)-3H-[1,2,3]triazolo[4,5-b]pyridin-5-yl)-N^2-((3R,4S)-3-fluoro-1-(oxetan-3-yl)piperidin-4-yl)pyrrolo[2,1-f][1,2,4]triazine-2,4-diamine] | 1.5
CN1CC[C@@H](Nc2nc(N)c3c(-c4ccc5nnn(CC(F)F)c5n4)ccn3n2)C(F)(F)C1 [Compound 850, (R)—N^2-(3,3-Difluoro-1-methylpiperidin-4-yl)-5-(3-(2,2-difluoroethyl)-3H-[1,2,3]triazolo[4,5-b]pyridin-5-yl)pyrrolo[2,1-f][1,2,4]triazine-2,4-diamine] | 0.6
CC(=O)N1CC[C@@H](Nc2nc(N)c3c(-c4ccc5nnn(CC(F)F)c5n4)ccn3n2)C(F)(F)C1 [Compound 853, (R)-1-(4-((4-Amino-5-(3-(2,2-difluoroethyl)-3H-[1,2,3]triazolo[4,5-b]pyridin-5-yl)pyrrolo[2,1-f][1,2,4]triazin-2-yl)amino)-3,3-difluoropiperidin-1-yl)ethan-1-one] | 1.5
Nc1nc(N[C@@H]2CCN(C3COC3)CC2(F)F)nn2ccc(-c3ccc4nnn(CC(F)F)c4n3)c12 [Compound 854, (R)—N^2-(3,3-Difluoro-1-(oxetan-3-yl)piperidin-4-yl)-5-(3-(2,2-difluoroethyl)-3H-[1,2,3]triazolo[4,5-b]pyridin-5-yl)pyrrolo[2,1-f][1,2,4]triazine-2,4-diamine] | 2.1
CN1CC[C@@H](Nc2nc(N)c3c(-c4ccc5ncn(CCF)c5n4)ccn3n2)C(F)(F)C1 [Compound 985, (R)—N^2-(3,3-Difluoro-1-methylpiperidin-4-yl)-5-(3-(2-fluoroethyl)-3H-imidazo[4,5-b]pyridin-5-yl)pyrrolo[2,1-f][1,2,4]triazine-2,4-diamine] | 1.5
C[C@]1(O)CC[C@H](Nc2nc(N)c3c(-c4ccc5ncn(CC(F)F)c5n4)ccn3n2)CC1 [Compound 986, (1r,4r)-4-((4-Amino-5-(3-(2,2-difluoroethyl)-3H-imidazo[4,5-b]pyridin-5-yl)pyrrolo[2,1-f][1,2,4]triazin-2-yl)amino)-1-methylcyclohexan-1-ol] | 0.7
CC(=O)N1C[C@H](F)[C@H](Nc2nc(N)c3c(-c4ccc5ncn(CC(F)F)c5n4)ccn3n2)C1 [Compound 987, 1-((3R,4S)-3-((4-Amino-5-(3-(2,2-difluoroethyl)-3H-imidazo[4,5-b]pyridin-5-yl)pyrrolo[2,1-f][1,2,4]triazin-2-yl)amino)-4-fluoropyrrolidin-1-yl)ethan-1-one] | 0.8
Nc1nc(N[C@@H]2CN(C3COC3)C[C@@H]2F)nn2ccc(-c3ccc4ncn(CC(F)F)c4n3)c12 [Compound 988, 5-(3-(2,2-Difluoroethyl)-3H-imidazo[4,5-b]pyridin-5-yl)-N^2-((3R,4S)-4-fluoro-1-(oxetan-3-yl)pyrrolidin-3-yl)pyrrolo[2,1-f][1,2,4]triazine-2,4-diamine] | 0.6
Nc1nc(N[C@H]2CCN(C3COC3)C[C@H]2F)nn2ccc(-c3ccc4ncn(CC(F)F)c4n3)c12 [Compound 990, 5-(3-(2,2-Difluoroethyl)-3H-imidazo[4,5-b]pyridin-5-yl)-N^2-((3R,4S)-3-fluoro-1-(oxetan-3-yl)piperidin-4-yl)pyrrolo[2,1-f][1,2,4]triazine-2,4-diamine] | 0.6
CN1CC[C@@H](Nc2nc(N)c3c(-c4ccc5ncn(CC(F)F)c5n4)ccn3n2)C(F)(F)C1 [Compound 991, (R)—N^2-(3,3-Difluoro-1-methylpiperidin-4-yl)-5-(3-(2,2-difluoroethyl)-3H-imidazo[4,5-b]pyridin-5-yl)pyrrolo[2,1-f][1,2,4]triazine-2,4-diamine] | 0.4
CC(=O)N1CC[C@@H](Nc2nc(N)c3c(-c4ccc5ncn(CC(F)F)c5n4)ccn3n2)C(F)(F)C1 [Compound 992, (R)-1-(4-((4-Amino-5-(3-(2,2-difluoroethyl)-3H-imidazo[4,5-b]pyridin-5-yl)pyrrolo[2,1-f][1,2,4]triazin-2-yl)amino)-3,3-difluoropiperidin-1-yl)ethan-1-one] | 0.7
Nc1nc(N[C@@H]2CCN(C3COC3)CC2(F)F)nn2ccc(-c3ccc4ncn(CC(F)F)c4n3)c12 [Compound 993, (R)—N^2-(3,3-Difluoro-1-(oxetan-3-yl)piperidin-4-yl)-5-(3-(2,2-difluoroethyl)-3H-imidazo[4,5-b]pyridin-5-yl)pyrrolo[2,1-f][1,2,4]triazine-2,4-diamine] | 0.6
CN1CC[C@@H](Nc2nc(N)c3c(-c4ccc5ncn(CC(F)(F)F)c5n4)ccn3n2)C(F)(F)C1 [Compound 994, (R)—N^2-(3,3-Difluoro-1-methylpiperidin-4-yl)-5-(3-(2,2,2-trifluoroethyl)-3H-imidazo[4,5-b]pyridin-5-yl)pyrrolo[2,1-f][1,2,4]triazine-2,4-diamine] | 1.2
Cc1nc2ccc(-c3ccn4nc(N[C@H]5CC[C@](C)(O)CC5)nc(N)c34)nc2n1CCF [Compound 995, (1r,4r)-4-((4-Amino-5-(3-(2-fluoroethyl)-2-methyl-3H-imidazo[4,5-b]pyridin-5-yl)pyrrolo[2,1-f][1,2,4]triazin-2-yl)amino)-1-methylcyclohexan-1-ol] | 0.8
CC(=O)N1CC[C@H](Nc2nc(N)c3c(-c4ccc5nc(C)n(CCF)c5n4)ccn3n2)[C@H](F)C1 [Compound 996, 1-((3R,4S)-4-((4-Amino-5-(3-(2-fluoroethyl)-2-methyl-3H-imidazo[4,5-b]pyridin-5-yl)pyrrolo[2,1-f][1,2,4]triazin-2-yl)amino)-3-fluoropiperidin-1-yl)ethan-1-one] | 1.8
Cc1nc2ccc(-c3ccn4nc(N[C@H]5CCN(C6COC6)C[C@H]5F)nc(N)c34)nc2n1CCF [Compound 997, N^2-((3R,4S)-3-Fluoro-1-(oxetan-3-yl)piperidin-4-yl)-5-(3-(2-fluoroethyl)-2-methyl-3H-imidazo[4,5-b]pyridn-5-yl)pyrrolo[2,1-f][1,2,4]triazine-2,4-diamine] | 1.7
